The values that follow come from PubChem BioAssay AID602186 (Broad Institute, 2012).

Broadly, the AC50 is the concentration giving half of the maximal activity seen.

Calls of active or inactive are those of the source.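 Rule for the calls: active = compounds reducing C. glabrata growth on glycerol with a fitted half-effect dose within twice the top tested dose; inconclusive = flat curve with moderate growth loss, or an unreliable fit; inactive = the rest.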

Test system in the first test: not listed separately
The test can be described thus: Candida glabrata respiratory growth inhibition – glycerol medium, OD600, dry powder, dose response (AID 602186). To be noted: Candida glabrata growth in glycerol, OD600, 48 h; at 19.5 µM (top of the series).
For `O=C(Nc1nc(-c2ccc3c(c2)CCCC3)cs1)c1ccccc1`, the activity change, negative = inhibition is 25.4% (inactive).
On the same count and under the same terms, the same measure for `NC(=O)c1cccc(C(=O)Nc2nc(-c3ccc4c(c3)CCCC4)cs2)c1`: 9.1% (inactive); for `Cc1cc(C)n(-c2nc3ccccc3c(=O)n2OCC#N)n1`: -19.2% (inactive); for `Cc1ccc(C(=O)Nc2nnc(-c3ccccc3)o2)cc1C`: 5.05% (inactive).
The same measure, in the same setting: next, `O=C(Nc1nc(-c2ccccc2)cs1)c1ccc(Br)s1`: -6.9% (inactive).
Same read-out and setting: the same measure for `COc1ccc(-c2nnc(NC(=O)c3ccc(S(=O)(=O)N4CCCc5ccccc54)cc3)o2)cc1`: -21.8% (inactive); for `O=C(Nc1nnc(-c2ccc3c(c2)CCCC3)o1)c1ccc(Cl)cc1Cl`: -18.1% (inactive).

The same test, now with this note: Candida glabrata growth in glycerol, OD600, 48 h; at 23.5 µM (top of the series).
For `Oc1c(CN2CCN(c3ccccc3)CC2)cc(Cl)c2cccnc12`, the activity change, negative = inhibition is -34.4% (inactive).

The test system of a further test is Candida glabrata growth in glycerol, OD600, 48 h. The description is as above.
Details: not given
For `O=C(Nc1nnc(-c2ccc3c(c2)CCCC3)o1)c1ccccc1`, the AC50 was 10300 nM.
Still for that read-out and setting: next, `Oc1c(C(c2ccccc2Cl)N2CCCCC2)ccc2cccnc12` (centres undefined): 9060 nM.
Take `C/C(=N\NC(=O)c1cc2ccccc2cc1O)c1ccccn1`: the AC50 was 8890 nM.
On the same count and under the same terms, the same measure for `Cc1ccc(-c2nc3c(Cl)cc(Cl)cc3c(=O)n2O)cc1`: 1390 nM.
The same measure, in the same setting: next, `O=C(NNC(=S)Nc1ccc(Cl)c(Cl)c1)c1ccccn1`: 119 nM; `Oc1c(C(c2ccc(Cl)cc2)N2CCCC2)ccc2cccnc12` (centres undefined): 13400 nM.
In the case of `Cc1ccc(C(=O)Nc2nc(-c3ccccn3)cs2)cc1`, the AC50 was 3280 nM.
Same read-out and setting: next, `CN1CCN(C(c2ccc(C(F)(F)F)cc2)c2ccc3cccnc3c2O)CC1` (centres undefined): 2960 nM; `O=C(Nc1nc(-c2ccccn2)cs1)c1ccc(Br)s1`: 1200 nM; `Oc1c(CN2CCc3ccccc3C2)cc(Cl)c2cccnc12`: 13600 nM.
The same measure, in the same setting: next, `O=C(Oc1c(Cl)cc(Cl)c2cccnc12)c1ccco1`: 617 nM; `C=CCNC(=S)N/N=C(\C)c1ccccn1`: 508 nM.
In the case of `O=C(Nc1nc(-c2ccccn2)cs1)c1ccccc1`, the AC50 was 11500 nM.
On the same count and under the same terms, the same measure for `CCCC(=O)NC(c1cccs1)c1cc(Cl)c2cccnc2c1O` (centres undefined): 2140 nM; for `O=C(Nc1nc(-c2ccccn2)cs1)c1ccc(Cl)s1`: 1380 nM.
Same read-out and setting: next, `CCOC(=O)N1C(=O)C2(CCCCC2)N(c2ccc(C)cc2)C1=S`: 141 nM.
